The target of data set [1] is T1, α-amylase prepared from human saliva (Homo sapiens, UniProt P0DUB6).
T1 construct: α-amylase prepared from human saliva; purchased Sigma Co; host or cells: human saliva
T1 sequence (P0DUB6 16-511): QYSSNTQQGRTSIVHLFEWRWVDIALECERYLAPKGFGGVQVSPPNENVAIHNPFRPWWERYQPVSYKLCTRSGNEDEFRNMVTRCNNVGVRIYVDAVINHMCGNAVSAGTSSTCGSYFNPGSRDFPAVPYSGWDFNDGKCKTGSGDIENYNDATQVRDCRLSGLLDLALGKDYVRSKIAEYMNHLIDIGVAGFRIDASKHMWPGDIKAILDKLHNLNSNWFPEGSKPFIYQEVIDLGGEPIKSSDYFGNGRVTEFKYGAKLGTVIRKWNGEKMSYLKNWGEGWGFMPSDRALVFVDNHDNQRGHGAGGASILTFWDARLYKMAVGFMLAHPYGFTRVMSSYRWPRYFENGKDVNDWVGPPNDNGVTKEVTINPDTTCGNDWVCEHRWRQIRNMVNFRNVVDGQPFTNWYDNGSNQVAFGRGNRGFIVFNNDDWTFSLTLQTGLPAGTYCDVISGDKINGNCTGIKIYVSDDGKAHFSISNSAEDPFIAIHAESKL
Put plainly: Inhibition of the activity of α-amylase (reducing sugar from soluble starch, Bernfeld method). It counts as biochemical.
Procedure: The enzyme used here was a product of α-amylase prepared from human saliva and supplied by Sigma Co.
A 150 µl of the enzyme solution (0.44 U/ml in a buffer solution) was added to 1230 µl of the sample solution and the mixture was incubated at 37°C for 10 minutes. Thereafter, the sample solution was admixed with 120 µl of a solution of soluble starch as the substrate so as to have a final concentration of the substrate of 2.0 mg/ml to effect the reaction at 37°C. A 200 µl aliquot of the solution was taken in every 3 minutes from the solution while the reaction was proceeding and the reducing sugar produced therein was determined by the measurement of the absorbance at a wave-length of 540 nm according to the method of Bernfeld described in Meth. […] The value of the absorbance was converted by calculation into the amount of maltose present and from this the reaction velocity was calculated according to the conventional procedure.

Data set [2] can be described thus: Acute toxicity in mice (LD50). The note with it: mouse, in vivo, ip; intraperitoneal administration, ICR mice, Van der Waerden method; read-out: LD₅₀. The protocol: An animal test was conducted by using ICR mice as the test animals to examine the acute toxicity of the inventive inhibitive agent against the activity of α-amylase. The values of LD₅₀ calculated according to the Van der Waerdrn method within the confidence limit were: 2412 mg/kg in the oral administration of the same crude mixture of catechin compounds as used in Example 2; 55.2 mg/kg in the intraperitoneal administration of a crude mixture of theaflavin compounds of the composition shown in Table 5 below; and 150 mg/kg in the intraperitoneal administration of epigallocatechin gallate.

Where [3] appears, read: human saliva α-amylase, 10 min preincubation at 37°C, soluble starch 2.0 mg/ml, read-out: Concentration for 50% inhibition.

pIC50: −log10 of the molar value. Like-named read-outs stand apart in the source and are kept apart here. A value given as a limit tells only on which side of the number the result lay.

For `Oc1cc(O)c2c(c1)O[C@H](c1cc(O)c(O)c(O)c1)[C@H](O)C2` [Epicagallcatechin, (-)epigallocatechin], the pIC50 in data set [1] (setting [3]) is under 3.00.

Take `O=C(O[C@@H]1Cc2c(O)cc(O)cc2O[C@@H]1c1ccc(O)c(O)c1)c1cc(O)c(O)c(O)c1` [Epicatechin gallate, (-)epicatechin gallate]: in data set [1] (setting [3]), the pIC50 is 3.89. On the same count and under the same terms, the same measure for `Oc1cc(O)c2c(c1)O[C@H](c1ccc(O)c(O)c1)[C@H](O)C2` [Epicatechin, (-)epicatechin]: under 3.00. For the molecule `O=C(O[C@@H]1Cc2c(O)cc(O)cc2O[C@@H]1c1cc(O)c(O)c(O)c1)c1cc(O)c(O)c(O)c1` [Epigallocatechin gallate, (-)epigallocatechin gallate], in data set [1] (setting [3]), the pIC50 is 3.59. The LD50 in data set [2] amounted to 150 mg/kg.

As for `O=c1c(O)cc([C@H]2Oc3cc(O)cc(O)c3C[C@H]2O)cc2c([C@H]3Oc4cc(O)cc(O)c4C[C@H]3O)cc(O)c(O)c12` [Free theaflavin, free theaflavin], the pIC50 in data set [1] (setting [3]) was 4.74. `O=C(O)c1cc(O)c(O)c(O)c1` [Gallic acid, reference compound] gave a pIC50 in data set [1] of under 3.00.

On to `O=C(O[C@@H]1Cc2c(O)cc(O)cc2O[C@@H]1c1cc(O)c(=O)c2c(O)c(O)cc([C@H]3Oc4cc(O)cc(O)c4C[C@H]3O)c2c1)c1cc(O)c(O)c(O)c1` [Theaflavin monogallate A, theaflavin monogallate A], for which the pIC50 in data set [1] (setting [3]) was 6.00. Same read-out and setting: the same measure for `O=C(O[C@@H]1Cc2c(O)cc(O)cc2O[C@@H]1c1cc(O)c(O)c2c(=O)c(O)cc([C@H]3Oc4cc(O)cc(O)c4C[C@H]3O)cc12)c1cc(O)c(O)c(O)c1` [Theaflavin monogallate B, theaflavin monogallate B]: 5.77.

(Values after patent publication EP0423419B1, “Inhibitive agent against activity of alpha-amylase” (MITSUI NORIN CO., LTD., priority 1989, dated 1991).)
